Patent publication US12280141B2, “Liquid depot for non-invasive sustained delivery of agents to the eye” (CHIBI, INC., priority 2018, dated 2025)
Where “and” joins values, the source holds several entries; their conditions need not be identical. Equal entries are not always repeated. Entries after “also recorded” stand apart in the source; their conditions may differ. Blank lines part the entries; values can stand above or below the molecule they belong to.

Legend:
[1] = Dexamethasone in eye tissues and fluids after one 25 μL depot instillation; details: for concentration at 3 day / concentration at 8 day / concentration at 8 h / concentration at 24 h / concentration at 14 day / concentration at 21 day: female, New Zealand White, rabbit, topical, 25 μL, Dexamethasone; for concentration at 3 day: Day 3; for concentration at 8 day: Day 8; for concentration at 24 h: Hr 24
[2] = Dexamethasone level in anterior chamber after 50 μL depot (GLP study); assay type: in vivo, New Zealand White (NZW) rabbits; details: both sexes, New Zealand White, rabbit, topical
Experimental: In a good laboratory practices (GLP) study, depots of 50 μL were instilled into each eye of New Zealand White (NZW) rabbits (either sex, 3.5-4 kilo), and the anterior chamber tapped subsequently and assayed by LCMS.

[3] = In vitro release of gatifloxacin from liquid depot, samples Gati-90A to F; assay type: physicochemical; details: for Gatifloxacin cumulative % released, Avg: Avg of 90-A to 90-F
Experimental: The in vitro sustained release study of gatifloxacin was carried out using a Cabone ring (Wilton Brands LLC, Woodridge, Ill. 60517) of 12.7 mm. […] [At each time point, 20 ml from each of the six samples was withdrawn for sampling and replaced with 20 mL saline. The amount of gatifloxacin released was determined by UPLC. The release profile of gatifloxacin-containing liquid depot formulation is shown in Table 15, Table 16, and FIG. 14; gatifloxacin was released for at least 24 hours.

[4] = In vitro release of prednisolone from liquid depot, samples 5A to 5F; assay type: physicochemical
Experimental: Six samples, 5A to 5F, each weighing at 48.2 mg, 48.5 mg, 48.1 mg, 49 mg, 51.7 mg, and 49.2 mg, respectively (average weight=49.1 mg; SD=1.34; % RSD=2.7) were incubated in 50 ml saline at 40° C. At each time point, 25 ml from each of the six samples was withdrawn for sampling and replaced with 25 ml saline.

[5] = single 50 μL instillation
[6] = Vitamin E acetate in rabbit aqueous humor samples; assay type: in vivo; details: days 1, 4, 7, 12; quantification limit 1.0 ng/mL
[7] = Diclofenac in tear samples after 50 μL liquid depot; assay type: in vivo, NZW rabbits; details: one-time application of 50 μL
Experimental: A formulation of the NSAID diclofenac was prepared by thoroughly mixing 10% diclofenac acid in a 90% liquid depot mixture of 80:20 tocopheryl acetate:Miglyol®. A one-time application of 50 μL of this formulation was instilled into the eyes of NZW rabbits, and then tear samples were collected and analyzed as described herein.

[8] = aqueous humor, Aqueous Humor Average (±SD), one 25 μL instillation of 10% dexamethasone depot
[9] = conjunctiva, Conjunctiva Average (±SD), one 25 μL instillation
[10] = cornea, Cornea Average (±SD), one 25 μL instillation
[11] = iris/ciliary body, Iris/Ciliary Body Average (±SD), one 25 μL instillation
[12] = one instillation of the liquid depot

Compound: C[C@@H]1C[C@H]2[C@@H]3CCC4=CC(=O)C=C[C@]4(C)[C@@]3(F)[C@@H](O)C[C@]2(C)[C@@]1(O)C(=O)CO [Dexamethasone, dexamethasone]
Dexamethasone, Iris/Ciliary Body Tissue ([1]; Day 14, per eye, one 25 μL instillation): 1.21 ng/g and 2.00 ng/g
Dexamethasone, Iris/Ciliary Body Homog. ([1]; Day 14, per eye, one 25 μL instillation, LOQ 0.2 ng/mL): 0.241 ng/mL and 0.399 ng/mL
Dexamethasone, Aqueous Humor Conc. ([1]; Day 21, per eye, one 25 μL instillation of 10% dexamethasone depot, LOQ 0.5 ng/mL): BLOQ
Dexamethasone, Iris/Ciliary Body Homog. ([1]; Day 21, per eye, one 25 μL instillation, LOQ 0.2 ng/mL): BLOQ
Dexamethasone, Iris/Ciliary Body Tissue ([1]; Hr 8, per eye, one 25 μL instillation): 83.0 ng/g and 86.0 ng/g and 150 ng/g and 113 ng/g and 157 ng/g
Dexamethasone, Iris/Ciliary Body Homog. ([1]; Hr 8, per eye, one 25 μL instillation, LOQ 0.2 ng/mL): 16.6 ng/mL and 17.2 ng/mL and 30.0 ng/mL and 22.5 ng/mL and 31.4 ng/mL
concentration at 3 day [1, 8]: 2.5 ng/mL
concentration at 8 day [1, 8]: 7.53 ng/mL
concentration at 8 h ([1]; aqueous humor, Aqueous Humor Average (±SD), Hr 8, one 25 μL instillation of 10% dexamethasone depot): 44.8 ng/mL
concentration at 24 h [1, 8]: 2.47 ng/mL
concentration at 14 day ([1]; aqueous humor, Aqueous Humor Conc., Day 14, per eye, one 25 μL instillation of 10% dexamethasone depot, LOQ 0.5 ng/mL): 0.677 ng/mL
concentration at 3 day [1, 9]: 372 ng/g
concentration at 8 day [1, 9]: 1630 ng/g
concentration at 14 day ([1]; conjunctiva, Conjunctiva Average (±SD), Day 14, one 25 μL instillation): 53.8 ng/g
concentration at 21 day ([1]; conjunctiva, Conjunctiva Average (±SD), Day 21, one 25 μL instillation): 28.2 ng/g
concentration at 8 h ([1]; conjunctiva, Conjunctiva Average (±SD), Hr 8, one 25 μL instillation): 1660 ng/g
concentration at 24 h [1, 9]: 598 ng/g
concentration at 3 day [1, 10]: 176 ng/g
concentration at 8 day [1, 10]: 284 ng/g
concentration at 14 day ([1]; cornea, Cornea Average (±SD), Day 14, one 25 μL instillation): 12.2 ng/g
concentration at 21 day ([1]; cornea, Cornea Average (±SD), Day 21, one 25 μL instillation): 8.14 ng/g
concentration at 8 h ([1]; cornea, Cornea Average (±SD), Hr 8, one 25 μL instillation): 560 ng/g
concentration at 24 h [1, 10]: 260 ng/g
concentration at 14 day ([1]; iris/ciliary body homogenate, Iris/Ciliary Body Homog., Day 14, per eye, one 25 μL instillation, LOQ 0.2 ng/mL): 0.239 ng/mL
concentration at 8 h ([1]; iris/ciliary body homogenate, Iris/Ciliary Body Homog., Hr 8, per eye, one 25 μL instillation, LOQ 0.2 ng/mL): 30.2 ng/mL
concentration at 3 day [1, 11]: 9.72 ng/g
concentration at 8 day [1, 11]: 8.15 ng/g
concentration at 14 day ([1]; iris/ciliary body, Iris/Ciliary Body Average (±SD), Day 14, one 25 μL instillation): 1.47 ng/g
concentration at 21 day ([1]; iris/ciliary body, Iris/Ciliary Body Average (±SD), Day 21, one 25 μL instillation): 3.88 ng/g
concentration at 8 h ([1]; iris/ciliary body, Iris/Ciliary Body Average (±SD), Hr 8, one 25 μL instillation): 123 ng/g
concentration at 24 h [1, 11]: 12.3 ng/g
concentration at 14 day ([1]; iris/ciliary body, Iris/Ciliary Body Tissue, Day 14, per eye, one 25 μL instillation): 1.2 ng/g
concentration at 8 h ([1]; iris/ciliary body, Iris/Ciliary Body Tissue, Hr 8, per eye, one 25 μL instillation): 151 ng/g
Time dexamethasone was in the aqueous humor [1, 12]: at least 8 days
Time dexamethasone was in the conjunctiva, cornea, and iris/ciliary body [1, 12]: at least 21 days
concentration at 1 day ([2]; Day 1, 50 μL depot 10:72:18): 6.68 ng/mL
concentration at 3 day ([2]; Day 3, 50 μL depot 10:72:18): 6.48 ng/mL
concentration at 5 day ([2]; Day 5, 50 μL depot 10:72:18): 4.14 ng/mL
concentration at 7 day ([2]; Day 7, 50 μL depot 10:72:18): 4.08 ng/mL
concentration at 10 day ([2]; Day 10, 50 μL depot 10:72:18): 3.2 ng/mL

Average concentration of gatifloxacin released ([3]; 1 Hour): 38.9 µg/mL
Gatifloxacin cumulative % released, Avg ([3]; 1 Hour): 32.3%
Average concentration of gatifloxacin released ([3]; 3 Hours): 61.9 µg/mL
Gatifloxacin cumulative % released, Avg ([3]; 3 Hours): 67.5%
Average concentration of gatifloxacin released ([3]; 24 Hours): 53.4 µg/mL
Gatifloxacin cumulative % released, Avg ([3]; 24 Hours): 86.2%
Time gatifloxacin was released in vitro ([3]; 40 mL saline at 40° C.): at least 24 hours
Compound: COc1c(N2CCNC(C)C2)c(F)cc2c(=O)c(C(=O)O)cn(C3CC3)c12 (stereo not shown) [Gatifloxacin, gatifloxacin]

Prednisolone cumulative % released, Avg ([4]; Day 0, Avg of 5A to 5F): 0%
Average concentration of prednisolone released ([4]; Day 1): 32.6 µg/mL
Amount of prednisolone released, Avg ([4]; Day 1, Avg of 5A to 5F): 1630.3 µg
Average concentration of prednisolone released ([4]; Day 2): 39.4 µg/mL
Amount of prednisolone released, Avg ([4]; Day 2, Avg of 5A to 5F): 1153.1 µg
Average concentration of prednisolone released ([4]; Day 3): 38.1 µg/mL
Amount of prednisolone released, Avg ([4]; Day 3, Avg of 5A to 5F): 922.4 µg
Average concentration of prednisolone released ([4]; Day 4): 30.6 µg/mL
Amount of prednisolone released, Avg ([4]; Day 4, Avg of 5A to 5F): 577.5 µg
Average concentration of prednisolone released ([4]; Day 5): 19.6 µg/mL
Amount of prednisolone released, Avg ([4]; Day 5, Avg of 5A to 5F): 72.3 µg
Compound: C[C@]12C=CC(=O)C=C1CC[C@@H]1[C@@H]2[C@@H](O)C[C@@]2(C)[C@H]1CC[C@]2(O)C(=O)CO [Prednisolone, prednisolone]

Time vitamin E acetate was present in the tears of rabbit eyes [5]: at least 12 days
Compound: CC(=O)Oc1c(C)c(C)c2c(c1C)CC[C@@](C)(CCC[C@H](C)CCC[C@H](C)CCCC(C)C)O2 [Vitamin E acetate, [(2R)-2,5,7,8-tetramethyl-2-[(4R,8R)-4,8,12-trimethyltridecyl]chroman-6-yl]acetate]
Vitamin E acetate in aqueous humor samples [6]: not observed; also recorded: No detectable

Time diclofenac was detected in the rabbit tear film [7]: ≥ 7 days
Compound: O=C(O)Cc1ccccc1Nc1c(Cl)cccc1Cl [diclofenac, diclofenac acid]
